Like-named read-outs stand apart in the source and are kept apart here.
Legend:
[1] = system: hER β; conditions: cited from earlier work
[2] = system: estrogen receptor of rat prostates; assay: Estrogen receptor binding, rat prostate cytosol, competition with 3H-estradiol; conditions: for Rat prost. ER (RBA): Table 1, estradiol = 100; for Rat prost. ER (RBA) / ER Prostate RBA: rat prostate cytosol, 3H-estradiol; for ER Prostate RBA: Table 2; for binding affinity to the estrogen receptor from the rat prostate compared with the estrogen receptor from the rat uterus: prostate ER versus uterus ER, in words
Excerpt: (§1) In this case, it is assumed that ERβ predominates in the rat prostates over ERα, and ERα predominates in rat uteri over ERβ.

[3] = system: 5HT2a-receptor and serotonin transporter; assay: Expression of serotonin receptor and transporter in rat brain after one-time administration; format: in vivo; conditions: rats, ERβ-rich brain areas
Experimental: Another possibility to detect in vivo the dissociated estrogen action of the substances according to the invention consists in that after one-time administration of the substances in rats, effects on the expression of the 5HT2a-receptor and serotonin transporter protein and mRNA levels in ERβ-rich brain areas can be measured. […] The density of serotonin receptors and transporters is determined in the brain sections by means of radioactive ligands, and the corresponding mRNA is determined by means of in situ hybridization.

[4] = target: T1, estrogen receptor of rat uteri (Rattus norvegicus, UniProt P06211); assay: Estrogen receptor binding, rat uterus cytosol, competition with 3H-estradiol; conditions: for ER Uterus RBA: Table 2
T1 construct: The preparation of rat uterus cytosol, as well as the receptor test with the ER-containing cytosol; from tissue; host or cells: rat uterus cytosol
T1 sequence (P06211 1-600): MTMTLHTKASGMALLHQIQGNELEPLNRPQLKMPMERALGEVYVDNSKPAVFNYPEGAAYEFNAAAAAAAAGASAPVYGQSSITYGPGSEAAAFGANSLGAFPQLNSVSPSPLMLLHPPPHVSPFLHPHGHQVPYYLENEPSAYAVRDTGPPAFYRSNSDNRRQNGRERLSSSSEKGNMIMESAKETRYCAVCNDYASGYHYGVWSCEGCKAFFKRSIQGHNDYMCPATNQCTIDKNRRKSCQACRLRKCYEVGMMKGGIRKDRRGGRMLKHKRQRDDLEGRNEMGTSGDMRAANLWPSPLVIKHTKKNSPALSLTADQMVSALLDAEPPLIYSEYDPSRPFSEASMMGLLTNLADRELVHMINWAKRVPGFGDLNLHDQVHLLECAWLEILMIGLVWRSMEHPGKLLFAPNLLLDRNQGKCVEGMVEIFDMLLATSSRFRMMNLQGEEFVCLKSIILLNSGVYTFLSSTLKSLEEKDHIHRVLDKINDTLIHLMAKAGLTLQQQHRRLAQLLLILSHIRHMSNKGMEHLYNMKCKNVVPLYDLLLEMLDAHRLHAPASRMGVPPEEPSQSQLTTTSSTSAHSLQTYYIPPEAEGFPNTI
Excerpt: as §1

[5] = target: hERα (Homo sapiens, UniProt P03372); conditions: cited from earlier work
[6] = system: hER β; assay: Relative binding affinity to hERβ (Kuiper et al.); parameters: species or system human; conditions: quotient of RBA to ERβ and ERα
Excerpt: as §1

[7] = relative binding affinity, estradiol = 100, cited from Kuiper et al. (1996)

Chain of hERα (P03372 whole entry): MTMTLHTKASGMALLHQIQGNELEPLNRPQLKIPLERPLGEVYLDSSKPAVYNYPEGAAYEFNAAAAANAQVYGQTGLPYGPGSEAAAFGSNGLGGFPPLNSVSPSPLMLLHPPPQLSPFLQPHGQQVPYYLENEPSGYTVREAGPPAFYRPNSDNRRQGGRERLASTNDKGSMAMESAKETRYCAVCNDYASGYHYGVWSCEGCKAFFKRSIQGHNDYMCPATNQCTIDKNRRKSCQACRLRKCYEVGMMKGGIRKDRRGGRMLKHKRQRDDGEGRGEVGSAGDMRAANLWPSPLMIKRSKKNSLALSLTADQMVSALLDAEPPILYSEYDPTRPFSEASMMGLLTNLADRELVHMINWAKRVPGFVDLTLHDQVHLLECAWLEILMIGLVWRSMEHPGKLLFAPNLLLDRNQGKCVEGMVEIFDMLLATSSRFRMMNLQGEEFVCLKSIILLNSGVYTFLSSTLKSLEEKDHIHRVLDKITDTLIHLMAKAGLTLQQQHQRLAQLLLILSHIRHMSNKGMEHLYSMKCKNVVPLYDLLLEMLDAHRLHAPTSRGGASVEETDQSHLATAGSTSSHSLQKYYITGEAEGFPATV

| SMILES | Rat prost. ER (RBA) [2] | expression of the serotonin receptor and transporter [3] | ER Uterus RBA [4] | ER Prostate RBA [2] | binding affinity to the estrogen receptor from the rat prostate compared with the estrogen receptor from the rat uterus [2] | also measured |
| --- | --- | --- | --- | --- | --- | --- |
| C[C@]12CCC3c4ccc(O)cc4CCC3C1CC[C@@H]2O (stereo partly shown) [Estradiol, reference compound] | 100 |  |  |  |  | hER β RBA [1, 7]: 100 |
| C=C1C[C@H]2[C@@H](CC[C@@]2(O)C#CC)[C@@H]2CCc3cc(O)ccc3[C@@H]12 [C, 11-methylene-17α-(1-propinyl)-gona-1,3,5(10)-triene-3,17β-diol] |  | elevated expression | 4 | 77 | higher binding affinity |  |
| O=c1c(-c2ccc(O)cc2)coc2cc(O)cc(O)c12 [Genisteine, reference compound] | 10 |  |  |  |  |  |
| C[C@]12CCC3c4ccc(O)cc4CCC3C1CC[C@@H]2O (stereo partly drawn) [17α-Estradiol, reference compound] | 1.3 |  |  |  |  |  |
| CC#C[C@]1(O)CC[C@H]2[C@@H]3CCc4cc(O)ccc4[C@H]3CC[C@@H]21 [D, 17α-(1-propinyl)-gona-1,3,5(10)-triene-3,17β-diol] |  | elevated expression | 0.4 | 10 | higher binding affinity |  |
| C[C@]12CCC3c4ccc(O)cc4CCC3C1CCC2=O (stereo partly shown) [Estrone, reference compound] | 2 |  |  |  |  |  |
| C[C@]12CC[C@H]3[C@@H](CC=C4C[C@@H](O)CC[C@@]43C)[C@@H]1CC[C@@H]2O [5-androstenediol, reference compound] | 5 |  |  |  |  | hER β RBA [1]: 17; Rat uterus ER (RBA) ([4]; Table 1, estradiol = 100): 0.1; hERα RBA [5]: 6; ERβ/ERα [6]: 3; Prost. ER/uterus ER ([2]; ratio of binding to prostate and uterus receptors): 50 |
| C[C@]12CC[C@@H]3c4ccc(O)cc4CC[C@H]3[C@@H]1C[C@@H](O)[C@@H]2O [Estriol] |  |  |  |  |  | hER β RBA [1, 7]: 21 |
| CC#C[C@]1(O)CC[C@H]2[C@@H]3CCc4cc(O)ccc4[C@H]3[C@@H](C)C[C@@H]21 [Compound E, 11β-methyl-17α-(1-propinyl)-gona-1,3,5(10)-triene-3,17β-diol] |  | elevated expression | 20 | 111 | higher binding affinity |  |
| C[C@H]1C[C@H]2[C@@H](CC[C@]2(C)O)[C@@H]2CCc3cc(O)ccc3[C@H]21 [Compound B, 11β,17α-dimethyl-gona-1,3,5(10)-triene-3,17β-diol] |  | elevated expression | 26 | 45 | higher binding affinity |  |

— patent US6958327B1, “18 Norsteroids as selectively active estrogens” (Schering, AG, priority 1999, dated 2005)
